Literature values as cited in patent publication US20090069233A1, “Agonist Peptides of Basic Fibroblast Growth Factor (bFGF) and the Method of Reduction of Wrinkles on Skin, Darkening of Hair and Acceleration of Wound Healing” (priority 2005, published 2009).

How the values were obtained:
[1] = test system: depigmented ear lobes of Guinea pigs; conditions: bFGF by interdermal injection
[2] = test system: depigmented skin patches of Yucatan swine; conditions: bFGF by interdermal injection
[3] = test system: melanocytes obtained from the uninvolved areas of untreated vitiligo subjects; conditions: in vitro cell cultures
artificial wound space = conditions: poly-vinyl alcohol sponge implant, histological and biochemical analysis
wounds of diabetic mice = conditions: wound healing experiments

| Substance | repigmentation of depigmented ear lobes [1] | repigmentation of depigmented skin patches [2] | correction of abnormalities of melanocytes [3] | neo vascularisation, number of fibroblasts and deposition of collagen in the wound space (artificial wound space) | side effects (wounds of diabetic mice) |
| --- | --- | --- | --- | --- | --- |
| epidermal growth factor: other growth factor used as specificity control in repigmentation animal models (NSDSECPLSHDGYCLHDGVCMYIEALDKYACNCVVGYIGERCQYRDLKWWELR; UniProt P01133 971-1023, looked up) [reference compound] | did not have any effect | did not have any effect | – | – | – |
| bFGF: Basic fibroblast growth factor, a potent mitogen for melanocytes, keratinocytes and fibroblasts | found effect | found effect | corrects all the abnormalities of melanocytes | increase neo vasculatisation the number of fibroblasts and the deposition of collagen in the wound space | no side effects |
